Results: US7902373B2 (Pfizer Inc, priority 2006, dated 2011)

What follows are compounds tested against human recombinant H-PGDS (Homo sapiens, UniProt O60760) (assay: Fluorescence intensity h-PGDS TBA enzyme assay). Settings: Examples up to 622 (and 3a, 3b).
Assay type: biochemical

human recombinant H-PGDS, sequence (O60760 whole entry): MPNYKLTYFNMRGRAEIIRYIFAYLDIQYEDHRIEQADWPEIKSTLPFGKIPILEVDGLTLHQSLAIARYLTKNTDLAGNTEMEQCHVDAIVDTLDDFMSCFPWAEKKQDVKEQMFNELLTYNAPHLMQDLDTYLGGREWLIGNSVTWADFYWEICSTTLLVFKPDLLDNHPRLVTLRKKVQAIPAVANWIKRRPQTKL

IC50 [nM] | Structure (SMILES)
5.43 | CC(C)(C)OC(=O)N1C[C@H](O)[C@H](NC(=O)c2ccc(-c3cccc(F)c3)nc2)C1 (relative stereo) [Example 609, cis-tert-Butyl 3-({[6-(3-fluorophenyl)pyridin-3-yl]carbonyl}amino)-4-hydroxypyrrolidine-1-carboxylate]
6.92 | CC(C)(C)OC(=O)N1C[C@@H](O)[C@H](NC(=O)c2ccc(-c3cccc(F)c3)nc2)C1 (relative stereo) [Example 610, Trans-tert-Butyl 3-({[6-(3-fluorophenyl)pyridin-3-yl]carbonyl}amino)-4-hydroxypyrrolidine-1-carboxylate]
12 | CC(C)(C)C(=O)N1C[C@@H](O)[C@H](NC(=O)c2ccc(-c3cccc(F)c3)nc2)C1 (relative stereo) [Example 612, Trans-N-[1-(2,2-dimethylpropanoyl)-4-hydroxypyrrolidin-3-yl]-6-(3-fluorophenyl)nicotinamide]
3.57 | O=C(N[C@H]1CN(c2cnc3ccccc3n2)C[C@@H]1O)c1ccc(-c2cccc(F)c2)nc1 (relative stereo) [Example 613, trans-6-(3-Fluorophenyl)-N-[4-hydroxy-1-quinoxalin-2-ylpyrrolidin-3-yl]nicotinamide]
52.5 | CCc1cn2nc(N3C[C@H](NC(=O)c4ccc(-c5cccc(F)c5)nc4)[C@@H](O)C3)ccc2n1 (relative stereo) [Example 614, Trans-N-[1-(2-ethylimidazo[12-b]pyridazin-6-yl)-4-hydroxypyrrolidin-3-yl]-6-(3-fluorophenyl)nicotinamide]
5.1 | Cc1cc(C)c(C#N)c(N2C[C@@H](O)[C@H](NC(=O)c3ccc(-c4cccc(F)c4)nc3)C2)n1 (relative stereo) [Example 615, Trans-N-[1-(3-cyano-4,6-dimethylpyridin-2-yl)-4-hydroxypyrrolidin-3-yl]-6-(3-fluorophenyl)nicotinamide]
5.12 | O=C(N[C@@H]1CN(c2nc3ccccc3o2)C[C@H]1O)c1ccc(-c2cccc(F)c2)nc1 (relative stereo) [Example 616, Trans-N-[1-(1,3-benzoxazol-2-yl)-4-hydroxypyrrolidin-3-yl]-6-(3-fluorophenyl)nicotinamide]
4.1 | Cc1ccc(C#N)c(N2C[C@H](NC(=O)c3ccc(-c4cccc(F)c4)nc3)[C@@H](O)C2)n1 (relative stereo) [Example 617]
7.33 | O=C(N[C@@H]1CN(c2ncc3ccc(F)cc3n2)C[C@H]1O)c1ccc(-c2cccc(F)c2)nc1 (relative stereo) [Example 618, Trans-6-(3-fluorophenyl)-N-[1-(7-fluoroquinazolin-2-yl)-4-hydroxypyrrolidin-3-yl]nicotinamide]
1.19 | O=C(N[C@@H]1CN(c2nnnn2-c2ccccc2)C[C@H]1O)c1ccc(-c2cccc(F)c2)nc1 (relative stereo) [Example 619, Trans-6-(3-fluorophenyl)-N-[4-hydroxy-1-(1-phenyl-1H-tetrazol-5-yl)pyrrolidin-3-yl]nicotinamide]
0.69 | CCC(CO)n1cnc2c(N3CCC(NC(=O)c4ccc(-c5cccc(F)c5)nc4)CC3)ncnc21 (single isomer, unassigned) [Example 581, 6-(3-Fluorophenyl)-N-(1-{9-[1-(hydroxymethyl)propyl]-9H-purin-6-yl}piperidin-4-yl)nicotinamide]
1.22 | CCC(CO)n1cnc2c(N3CCC(NC(=O)c4ccc(-c5cccc(F)c5)nc4)CC3)ncnc21 (single isomer, unassigned) [Example 582, 6-(3-Fluorophenyl)-N-(1-{9-[1-(hydroxymethyl)propyl]-9H-purin-6-yl}piperidin-4-yl)nicotinamide]
0.204 | O=C(NC1CCN(CC(F)(F)F)CC1)c1ccc(-c2ccccc2)nc1 [Example 1, 6-Phenyl-N-(1-(2,2,2-trifluoroethyl)piperidin-4-yl)nicotinamide]
0.343 | O=C(NC1CCN(c2ccc(C(=O)N3CCOCC3)cn2)CC1)c1ccc(-c2cccc(F)c2)nc1 [Example 3, 6-(3-Fluorophenyl)-N-{1-[5-(morpholin-4-ylcarbonyl)pyridin-2-yl]piperidin-4-yl}nicotinamide]
6.86 | CN1CCC(NC(=O)c2ccc(-c3ccccc3)nc2)CC1 [Example 3a, N-(1-Methylpiperidin-4-yl)-6-phenylnicotinamide]
0.403 | CCOC(=O)N1CCC(NC(=O)c2ccc(-c3ccccc3)nc2)CC1 [Example 3b, Ethyl 4-{[(6-phenylpyridin-3-yl)carbonyl]amino}piperidine-1-carboxylate]
2.58 | CC(C)N1CCC(NC(=O)c2ccc(-c3ccccc3)nc2)CC1 [Example 4, N-(1-Isopropylpiperidin-4-yl)-6-phenylnicotinamide]
0.665 | O=C(NC1CCN(Cc2ccccn2)CC1)c1ccc(-c2ccccc2)nc1 [Example 5, 6-Phenyl-N-[1-(pyridin-2-ylmethyl)piperidin-4-yl]nicotinamide]
0.377 | O=C(NC1CCN(CC2CCOCC2)CC1)c1ccc(-c2ccccc2)nc1 [Example 6, 6-Phenyl-N-[1-(tetrahydro-2H-pyran-4-ylmethyl)piperidin-4-yl]nicotinamide]
0.351 | CC(C)(C)C(=O)N1CCC(NC(=O)c2ccc(-c3ccccc3)nc2)CC1 [Example 7, N-[1-(2,2-Dimethylpropanoyl)piperidin-4-yl]-6-phenylnicotinamide]
1.57 | O=C(NC1CCN(Cc2ccccc2)CC1)c1ccc(-c2ccccc2)nc1 [Example 8, N-(1-Benzylpiperidin-4-yl)-6-phenylnicotinamide]
23.6 | O=C(NC1CCN(CC(F)(F)F)CC1)c1ccc(-c2ccc(F)cc2)nc1 [Example 9, 6-(4-Fluorophenyl)-N-(1-(2,2,2-trifluoroethyl)piperidin-4-yl)nicotinamide]

IC50 [nM] | Structure (SMILES)
78.4 | CCCC(=O)N1CCC(NC(=O)c2ccc(-c3ccc(F)cc3)nc2)CC1 [Example 10, N-(1-Butyrylpiperidin-4-yl)-6-(4-fluorophenyl)nicotinamide]
39.4 | O=C(NC1CCN(Cc2ccccn2)CC1)c1ccc(-c2ccc(F)cc2)nc1 [Example 11, 6-(4-Fluorophenyl)-N-[1-(pyridin-2-ylmethyl)piperidin-4-yl]nicotinamide]
694 | CN1CCC(NC(=O)c2ccc(-c3ccc(F)cc3)nc2)CC1 [Example 12, 6-(4-Fluorophenyl)-N-(1-methylpiperidin-4-yl)nicotinamide]
58 | O=C(NC1CCN(Cc2ccccc2)CC1)c1ccc(-c2ccc(F)cc2)nc1 [Example 13, N-(1-Benzylpiperidin-4-yl)-6-(4-fluorophenyl)nicotinamide]
4.29 | COc1cccc(-c2ccc(C(=O)NC3CCN(CC(F)(F)F)CC3)cn2)c1 [Example 14, 6-(3-Methoxyphenyl)-N-(1-(2,2,2-trifluoroethyl)piperidin-4-yl)nicotinamide]
2.91 | COc1cccc(-c2ccc(C(=O)NC3CCN(Cc4ccccn4)CC3)cn2)c1 [Example 15, 6-(3-Methoxyphenyl)-N-[1-(pyridin-2-ylmethyl)piperidin-4-yl]nicotinamide]
146 | COc1cccc(-c2ccc(C(=O)NC3CCN(C)CC3)cn2)c1 [Example 16, 6-(3-Methoxyphenyl)-N-(1-methylpiperidin-4-yl)nicotinamide]
11.7 | COc1cccc(-c2ccc(C(=O)NC3CCN(Cc4ccccc4)CC3)cn2)c1 [Example 17, N-(1-Benzylpiperidin-4-yl)-6-(3-methoxyphenyl)nicotinamide]
3.94 | CCOC(=O)N1CCC(NC(=O)c2ccc(-c3cccc(OC)c3)nc2)CC1 [Example 18, Ethyl 4-({[6-(3-methoxyphenyl)pyridin-3-yl]carbonyl}amino)piperidine-1-carboxylate]
36.2 | CCCC(=O)N1CCC(NC(=O)c2ccc(-c3cccc(OC)c3)nc2)CC1 [Example 19, N-(1-Butyrylpiperidin-4-yl)-6-(3-methoxyphenyl)nicotinamide]
1000 | COc1cccc(-c2ccc(C(=O)NC3CCN(C(C)C)CC3)cn2)c1 [Example 20, N-(1-Isopropylpiperidin-4-yl)-6-(3-methoxyphenyl)nicotinamide]
0.898 | Cc1cccc(-c2ccc(C(=O)NC3CCN(CC(F)(F)F)CC3)cn2)c1 [Example 21, 6-m-Tolyl-N-(1-(2,2,2-trifluoroethyl)piperidin-4-yl)nicotinamide]
73.3 | Cc1cccc(-c2ccc(C(=O)NC3CCN(C)CC3)cn2)c1 [Example 22, 6-(3-Methylphenyl)-N-(1-methylpiperidin-4-yl)nicotinamide]
1.72 | Cc1cccc(-c2ccc(C(=O)NC3CCN(Cc4ccccc4)CC3)cn2)c1 [Example 23, N-(1-Benzylpiperidin-4-yl)-6-(3-methylphenyl)nicotinamide]
2.64 | CCCC(=O)N1CCC(NC(=O)c2ccc(-c3cccc(C)c3)nc2)CC1 [Example 24, N-(1-Butyrylpiperidin-4-yl)-6-(3-methylphenyl)nicotinamide]
7.66 | Cc1cccc(-c2ccc(C(=O)NC3CCN(C(C)C)CC3)cn2)c1 [Example 25, N-(1-Isopropylpiperidin-4-yl)-6-(3-methylphenyl)nicotinamide]
19.1 | CN1CCC(NC(=O)c2ccc(-c3cccc(F)c3)nc2)CC1 [Example 27, 6-(3-Fluorophenyl)-N-(1-methylpiperidin-4-yl)nicotinamide]
1.72 | O=C(NC1CCN(Cc2ccccn2)CC1)c1ccc(-c2cccc(F)c2)nc1 [Example 28, 6-(3-Fluorophenyl)-N-[1-(pyridin-2-ylmethyl)piperidin-4-yl]nicotinamide]
0.946 | O=C(NC1CCN(Cc2ccccc2)CC1)c1ccc(-c2cccc(F)c2)nc1 [Example 29, N-(1-Benzylpiperidin-4-yl)-6-(3-fluorophenyl)nicotinamide]
3.79 | CC(C)N1CCC(NC(=O)c2ccc(-c3cccc(F)c3)nc2)CC1 [Example 30, 6-(3-Fluorophenyl)-N-(1-isopropylpiperidin-4-yl)nicotinamide]
19.9 | CCCC(=O)N1CCC(NC(=O)c2ccc(-c3cccc(F)c3)nc2)CC1 [Example 31, N-(1-Butyrylpiperidin-4-yl)-6-(3-fluorophenyl)nicotinamide]
